Assay results taken from patent US4923868A, “8-fluoro and 7,8,10-trifluoro-9-(substituted)-6-oxo-6H-benzo(C)quinolizine-5-carboxyl ic acids” (American Cyanamid Company, priority 1989, dated 1990).
In brackets after ≈: the same amount, converted by molar mass. Read-outs that look alike come from different tables or passages of the source.

Legend:
Assay in all cases: In vitro antibacterial spectrum, agar plate dilution (MIC)
Type in all cases: cell-based
[1] = test system: Citrobacter diversus; settings: Citrobacter koseri; Citrobacter diversus K 82-24; Mueller-Hinton agar, 10^4 CFU, 18 h, 35° C
Description: (§1) The in vitro antimicrobial spectrum of the compounds of the invention were determined by the agar plate dilution method with Mueller-Hinton agar and an inoculum of each test organism of approximately 10^4 colony forming units delivered by the Steers replicating device. The minimal inhibitory concentration (MIC) in mcg/ml is defined as the lowest concentration of test compound that inhibited visible growth after 18 hours incubation at 35° C.

[2] = test system: Providencia stuartii; settings: Providencia stuartii CMC 83-3; Mueller-Hinton agar, 10^4 CFU, 18 h, 35° C
Description: as §1

[3] = test system: Proteus rettgeri; settings: Providencia rettgeri; Proteus rettgeri IO 83-21; Mueller-Hinton agar, 10^4 CFU, 18 h, 35° C
Description: as §1

[4] = test system: Staphylococcus aureus; settings: Mueller-Hinton agar, 10^4 CFU, 18 h, 35° C
Description: as §1

[5] = test system: Morganella morganii; settings: 18 h, 10^4 CFU, 35° C
Description: as §1

[6] = test system: Serratia marcescens; settings: 18 h, 10^4 CFU, 35° C
Description: as §1

[7] = test system: Klebsiella nneumoniae; settings: Mueller-Hinton agar, 10^4 CFU, 18 h, 35° C
Description: as §1

[8] = test system: Enterobacter cloacae; settings: 18 h, 10^4 CFU, 35° C
Description: as §1

[9] = test system: Escherichia coli; settings: 10^4 CFU, 35° C
Description: as §1

[10] = test system: Streptococcus faecalis; settings: Mueller-Hinton agar, 10^4 CFU, 18 h, 35° C
Description: as §1

[11] = test system: Pseudomonas aeruginosa; settings: Mueller-Hinton agar, 10^4 CFU, 18 h, 35° C
Description: as §1

SMILES: CN1CCN(c2cc3c(cc2F)c(=O)c(C(=O)O)c2ccccn23)CC1 [Example 6, 8-Fluoro-9-(4-methyl-1-piperazinyl)-6-oxo-6H-benzo[c]quinolizine-5-carboxylic acid]
- MIC [1]: 4 µg/mL (≈ 11.3 µM)
- MIC [2]: > 16 µg/mL
- MIC [3]: 1 µg/mL (≈ 2.81 µM)
- MIC ([4]; ATCC25913, Staphylococcus aureus ATCC 25913, read-out: MIC): > 16 µg/mL
- MIC ([4]; Staphylococcus aureus CMC 83-131): > 16 µg/mL
- MIC ([4]; Staphylococcus aureus K 82-26): > 16 µg/mL
- MIC ([4]; Staphylococcus aureus VGH 84-47, read-out: MIC): > 16 µg/mL
- MIC ([5]; Morganella morganii CMC 84-38, Mueller-Hinton agar): 0.5 µg/mL (≈ 1.41 µM)
- MIC ([5]; Morganella morganii VGH 84-12, Mueller-Hinton agar): 4 µg/mL (≈ 11.3 µM)
- MIC ([5]; Moroanella morganii MOR 84-45, Mueller-Hinton agar): 0.5 µg/mL (≈ 1.41 µM)
- MIC ([6]; Serratia marcescens CMC 83-74, Mueller-Hinton agar): > 16 µg/mL
- MIC ([6]; Serratia marcescens IO 83-63, Mueller-Hinton agar): 4 µg/mL (≈ 11.3 µM)
- MIC ([6]; Serratia marcescens MOR 84-41, Mueller-Hinton agar): 2 µg/mL (≈ 5.63 µM)
- MIC ([7]; Klebsiella nneumoniae IO 83-5): 8 µg/mL (≈ 22.5 µM)
- MIC ([7]; Klebsiella nneumoniae MOR 84-24, read-out: MIC): 8 µg/mL (≈ 22.5 µM)
- MIC ([7]; Klebsiella oneumoniae CMC 84-31): 8 µg/mL (≈ 22.5 µM)
- MIC ([8]; Enterobacter cloacae K 84-10, Mueller-Hinton agar): 2 µg/mL (≈ 5.63 µM)
- MIC ([8]; Enterobacter cloacae MOR 84-30, Mueller-Hinton agar): 16 µg/mL (≈ 45 µM)
- MIC ([8]; Enterobacter cloacae VGH 84-39, Mueller-Hinton agar): 2 µg/mL (≈ 5.63 µM)
- MIC ([9]; 18 h, Escherichia coli CMC 84-50, Mueller-Hinton agar): 2 µg/mL (≈ 5.63 µM)
- MIC ([9]; 18 h, Escherichia coli D 21, Mueller-Hinton agar): 4 µg/mL (≈ 11.3 µM)
- MIC ([9]; 18 h, Escherichia coli D 22, Mueller-Hinton agar): 2 µg/mL (≈ 5.63 µM)
- MIC ([9]; 18 h, Escherichia coli MOR 84-20, Mueller-Hinton agar): 2 µg/mL (≈ 5.63 µM)
- MIC ([9]; 18 h, Escherichia coli VGH 84-19, Mueller-Hinton agar): 4 µg/mL (≈ 11.3 µM)
- MIC ([9]; ATCC25922, 18 h, Escherichia coli ATCC 25922, Mueller-Hinton agar): 4 µg/mL (≈ 11.3 µM)
- MIC ([10]; Enterococcus faecalis, Streptococcus faecalis VCI 85-30, read-out: MIC): > 16 µg/mL
- MIC ([10]; Streptococcus faecalis CMC 83-120): > 16 µg/mL
- MIC ([10]; Streptococcus faecalis VGH 84-69): > 16 µg/mL
- MIC ([11]; Pseudomonas aeruginosa CMC 83-20): > 16 µg/mL
- MIC ([11]; Pseudomonas aeruginosa K 84-16, read-out: MIC): > 16 µg/mL
- MIC ([11]; Pseudomonas aeruginosa VGH 84-3): > 16 µg/mL
